Data taken from patent US20260007601A1, “IONIZABLE CATIONIC LIPID COMPOUND AND COMPOSITION FOR DELIVERING NUCLEIC ACID AND USE THEREOF” (BEIJING YOUCAREKECHUANG PHARMACEUTICAL TECHNOLOGY CO., LTD., priority 2023, published 2026).
Blank lines part the entries; values can stand above or below the molecule they belong to.

Experiments:
[1] = Encapsulation rate, drug loading concentration and total RNA concentration detection (RiboGreen); format: physicochemical; settings: for Drug loading concentration / Encapsulation rate / Total RNA concentration: LNP formulation of the named lipid
[2] = Particle size and polydispersity index (PDI) of nanolipid particles, dynamic light scattering; format: physicochemical; settings: LNP formulation prepared from the named cationic lipid, 25° C
Method: The particle size and polydispersity index (PDI) were determined by dynamic light scattering method using a Malvern laser particle size analyzer. 10 μL of liposome solution was diluted to 1 mL with RNase-free deionized water and added to a sample pool. Each sample was measured three times. The measurement conditions were: 90° scattering angle, 25° C.

female BALB/C mice = assay: Mouse in vivo imaging of Fluc-mRNA LNP formulations; design: average radiation intensity (mRNA expression): unit not given here; settings: for average radiation intensity (mRNA expression): 10 μg Fluc-mRNA LNP intramuscularly
Procedure, shortened: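 Female BALB/C mice (4–6 weeks, 17–19 g) received LNP carrying 10 μg Fluc-mRNA intramuscularly. Imaging substrate given intraperitoneally at 6 h, 24 h, 48 h and 7 d; after 5 min free movement, average radiance read by IVIS Spectrum imaging.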

293T cells [3] = assay: Cell survival rate assay (CCK-8); format: cell-based; settings: for Cell survival rate: LNP containing 1.5 μg Fluc-mRNA, 24 hours, CCK-8
Procedure, shortened: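 293T cells seeded at 10,000 per well and grown overnight, then exposed for 24 h to LNPs (cationic/neutral/structured/PEG lipids 49:10:39.5:1.5) carrying 1.5 μg Fluc-mRNA, or Lipofectamine 3000. Viability read by CCK-8, 1 h incubation, absorbance at 450 nm.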

293T cells [4] = assay: Fluorescence detection of Fluc-mRNA (cell transfection efficiency of LNP formulations); format: cell-based; settings: for Relative light unit (RLU): LNP containing 0.3 μg Fluc-mRNA, 24 hours; for Multiples of values that equivalent to YK-201: RLU of YK-201 / RLU of the named lipid; for Multiples of values that equivalent to YK-202: RLU of YK-202 / RLU of the named lipid; for Multiples of values that equivalent to YK-209: RLU of YK-209 / RLU of the named lipid; for Ratio relative to SM-102: RLU of the named lipid / RLU of SM-102, times that of SM-102
Procedure, shortened: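 293T cells at 10,000 per well, adhered overnight, then given LNPs carrying 0.3 μg Fluc-mRNA (cationic:neutral:structured:polymer-conjugated lipid 49:10:39.5:1.5 molar). After 24 h, luciferase signal read with luciferase kit reagents on an IVIS imaging system as transfection efficiency.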

Structure (SMILES): CCCCCCCCCCOC(=O)CCCN(CCCCCC(=O)OCC(CCCCCCCC)CCCCCCCC)CCN(C)CCO [YK-207, 2-octyldecyl-6-(2-((2-(2-hydroxyethyl(methyl)amino)ethyl)(4-oxo-4-((decyloxy)butyl)amino) hexanoate]
drug loading concentration, times that of ALC-0315 [1]: 1.52 times
drug loading concentration, times that of HHMA [1]: 1.29 times
drug loading concentration, times that of SM-102 [1]: 1.56 times
drug loading concentration, times that of YK-009 [1]: 1.47 times
drug loading concentration, times that of compound 21 [1]: 1.75 times
drug loading concentration, times that of compound 23 [1]: 1.91 times
total RNA concentration, times that of ALC-0315 [1]: 1.18 times
total RNA concentration, times that of HHMA [1]: 1.15 times
total RNA concentration, times that of SM-102 [1]: 1.24 times
total RNA concentration, times that of YK-009 [1]: 1.13 times
total RNA concentration, times that of compound 21 [1]: 1.42 times
total RNA concentration, times that of compound 23 [1]: 1.34 times
Drug loading concentration [1]: 39.60 µg/mL
Encapsulation rate [1]: 90.8%
Total RNA concentration [1]: 43.63 µg/mL
encapsulation rate higher than that of ALC-0315 ([1]; difference of rates): 28.00%
encapsulation rate higher than that of HHMA ([1]; difference of rates): 30.30%
encapsulation rate higher than that of SM-102 ([1]; difference of rates): 28.50%
encapsulation rate higher than that of YK-009 ([1]; difference of rates): 27.80%
encapsulation rate higher than that of compound 21 ([1]; difference of rates): 33.00%
encapsulation rate higher than that of compound 23 ([1]; difference of rates): 35.60%
PDI [2]: 18.9%
Particle size [2]: 192 nm
average radiation intensity (mRNA expression) (female BALB/C mice; 6 h): 1974100
average radiation intensity (mRNA expression) (female BALB/C mice; 24 h): 1523040
average radiation intensity (mRNA expression) (female BALB/C mice; 48 h): 525800
average radiation intensity (mRNA expression) (female BALB/C mice; 7 d): 22896
mRNA expression level in mice can reach, times that of ALC-0315 (female BALB/C mice; time point not stated): 13 times
mRNA expression level in mice can reach, times that of HHMA (female BALB/C mice; time point not stated): 16 times
mRNA expression level in mice can reach, times that of SM-102 (female BALB/C mice; time point not stated): 16 times
mRNA expression level in mice can reach, times that of compound 21 (female BALB/C mice; time point not stated): 16 times
mRNA expression level in mice can reach, times that of compound 23 (female BALB/C mice; time point not stated): 16 times
Cell survival rate (293T cells [3]): 73.88%
cell survival rate higher than that of ALC-0315 (293T cells [3]; difference of rates): 23.92%
cell survival rate higher than that of HHMA (293T cells [3]; difference of rates): 8.32%
cell survival rate higher than that of Lipofectamine 3000 (293T cells [3]; difference of rates): 50.83%
cell survival rate higher than that of SM-102 (293T cells [3]; difference of rates): 5.33%
cell survival rate higher than that of compound 21 (293T cells [3]; difference of rates): 4.86%
cell survival rate higher than that of compound 23 (293T cells [3]; difference of rates): 3.78%
RLU / cell transfection efficiency, times that of ALC-0315 (293T cells [4]; Fluc-mRNA LNP): 9 times
RLU / cell transfection efficiency, times that of HHMA (293T cells [4]; Fluc-mRNA LNP): 10 times
RLU / cell transfection efficiency, times that of Lipofectamine 3000 (293T cells [4]; Fluc-mRNA LNP): 17 times
RLU / cell transfection efficiency, times that of YK-009 (293T cells [4]; Fluc-mRNA LNP): 4 times
RLU / cell transfection efficiency, times that of compound 21 (293T cells [4]; Fluc-mRNA LNP): 14 times
RLU / cell transfection efficiency, times that of compound 23 (293T cells [4]; Fluc-mRNA LNP): 15 times
cell transfection efficiency, times that of YK-221 (293T cells [4]; Fluc-mRNA LNP): 960.71 times
fluorescence absorption value / cell transfection efficiency, times that of YK-220 (293T cells [4]; Fluc-mRNA LNP): 124.13 times
Relative light unit (RLU) (293T cells [4]): 20878758 RLU
Multiples of values that equivalent to YK-201 (293T cells [4]): 1.36
Multiples of values that equivalent to YK-202 (293T cells [4]): 1.43
Multiples of values that equivalent to YK-209 (293T cells [4]): 1.29

Drug loading concentration [1]: 25.44 µg/mL
Encapsulation rate [1]: 62.3%
Total RNA concentration [1]: 35.27 µg/mL
PDI [2]: 19.2%
Particle size [2]: 145 nm
Structure (SMILES): CCCCCCCCCCCOC(=O)CCCCCN(CCO)CCCCCCCC(=O)OC(CCCCCCCC)CCCCCCCC [SM-102, reference compound]
average radiation intensity (mRNA expression) (female BALB/C mice; 6 h): 678870
average radiation intensity (mRNA expression) (female BALB/C mice; 24 h): 115800
average radiation intensity (mRNA expression) (female BALB/C mice; 48 h): 30560
average radiation intensity (mRNA expression) (female BALB/C mice; 7 d): 5903
Cell survival rate (293T cells [3]): 68.55%
Relative light unit (RLU) (293T cells [4]): 1665874 RLU
Multiples of values that equivalent to YK-201 (293T cells [4]): 17.10
Multiples of values that equivalent to YK-202 (293T cells [4]): 17.98
Ratio relative to SM-102 (293T cells [4]): 1.00

Drug loading concentration [1]: 37.51 µg/mL
Encapsulation rate [1]: 98.3%
Total RNA concentration [1]: 38.16 µg/mL
PDI [2]: 25.8%
Particle size [2]: 211 nm
Structure (SMILES): CCCCCCCCC(CCCCCCCC)COC(=O)CCCCCN(CCCCCC(=O)OCC(CCCCCCCC)CCCCCCCC)CCN(C)CCNC [YK-223]
average radiation intensity (mRNA expression) (female BALB/C mice; 6 h): 10355
average radiation intensity (mRNA expression) (female BALB/C mice; 24 h): 1786
average radiation intensity (mRNA expression) (female BALB/C mice; 48 h): 678
average radiation intensity (mRNA expression) (female BALB/C mice; 7 d): 440
Cell survival rate (293T cells [3]): 36.64%
Relative light unit (RLU) (293T cells [4]): 75012 RLU
Multiples of values that equivalent to YK-201 (293T cells [4]): 379.71
Multiples of values that equivalent to YK-202 (293T cells [4]): 399.37
Multiples of values that equivalent to YK-209 (293T cells [4]): 280.74
Ratio relative to SM-102 (293T cells [4]): 0.05

Drug loading concentration [1]: 32.62 µg/mL
Encapsulation rate [1]: 75.9%
Total RNA concentration [1]: 42.98 µg/mL
PDI [2]: 17.7%
Particle size [2]: 193 nm
Structure (SMILES): CCCCCCCCCCCOC(=O)CCCCCN(CCCCCCCC(=O)OC(CCCCCCCC)CCCCCCCC)CCN(CC)CCO [YK-204, heptadecan-9-yl-8-(2-((2-hydroxyethyl)(ethylamino))ethyl)(6-oxo-6-((undecanyloxy)hexyl)amino)octanoate]
average radiation intensity (mRNA expression) (female BALB/C mice; 6 h): 35245
average radiation intensity (mRNA expression) (female BALB/C mice; 24 h): 5230
average radiation intensity (mRNA expression) (female BALB/C mice; 48 h): 2440
average radiation intensity (mRNA expression) (female BALB/C mice; 7 d): 754
Cell survival rate (293T cells [3]): 42.57%
Relative light unit (RLU) (293T cells [4]): 363998 RLU
Multiples of values that equivalent to YK-201 (293T cells [4]): 78.25
Multiples of values that equivalent to YK-202 (293T cells [4]): 82.30
Multiples of values that equivalent to YK-209 (293T cells [4]): 57.85
Ratio relative to SM-102 (293T cells [4]): 0.22
